Test results from a compilation of properties of binary mixtures (doi:10.1016/j.jct.2020.106093).

Test: xn = mol fraction of the nth substance listed
Conditions: 100.9 kPa

CC(=O)[O-].CC[NH2+]CC + O
Conditions	electrical conductivity [S/m]	speed of sound [m/s]	viscosity [mPa·s]
283.15 K, x1 = 0.015	–	–	2.07
283.15 K, x1 = 0.055	–	–	5.43
283.15 K, x1 = 0.119	–	–	15.42
283.15 K, x1 = 0.549	–	–	143.2
283.15 K, x1 = 0.714	–	–	161.6
285.65 K, x1 = 0.015	–	–	1.92
285.65 K, x1 = 0.055	–	–	4.91
285.65 K, x1 = 0.119	–	–	13.69
285.65 K, x1 = 0.168	–	–	24.1
285.65 K, x1 = 0.24	–	–	47.8
285.65 K, x1 = 0.351	–	–	79.3
285.65 K, x1 = 0.549	–	–	122.5
285.65 K, x1 = 0.714	–	–	138.5
288.15 K, x1 = 0.015	–	–	1.78
288.15 K, x1 = 0.055	–	–	4.46
288.15 K, x1 = 0.119	–	–	12.18
288.15 K, x1 = 0.168	–	–	21.1
288.15 K, x1 = 0.24	–	–	41.6
288.15 K, x1 = 0.351	–	–	68.3
288.15 K, x1 = 0.714	–	–	119
290.65 K, x1 = 0.015	–	–	1.65
290.65 K, x1 = 0.055	–	–	4.05
290.65 K, x1 = 0.119	–	–	10.87
290.65 K, x1 = 0.168	–	–	18.7
290.65 K, x1 = 0.24	–	–	36.3
290.65 K, x1 = 0.351	–	–	59
290.65 K, x1 = 0.549	–	–	90.6
290.65 K, x1 = 0.714	–	–	102.7
293.15 K, x1 = 0.015	–	1580	1.538
293.15 K, x1 = 0.055	–	1761	3.73
293.15 K, x1 = 0.119	–	1844	9.74
293.15 K, x1 = 0.168	–	1826	16.49
293.15 K, x1 = 0.24	–	1768	31.8
293.15 K, x1 = 0.35	–	1704	–
293.15 K, x1 = 0.351	–	–	51.2
293.15 K, x1 = 0.549	–	1597	78.4
293.15 K, x1 = 0.708	–	1554	–
293.15 K, x1 = 0.714	–	–	89.2
293.15 K, x1 = 0.835	–	1523	–
295.65 K, x1 = 0.015	–	–	1.437
295.65 K, x1 = 0.055	–	–	3.4
295.65 K, x1 = 0.119	–	–	8.75
295.65 K, x1 = 0.24	–	–	28
295.65 K, x1 = 0.351	–	–	44.7
295.65 K, x1 = 0.549	–	–	68.4
295.65 K, x1 = 0.714	–	–	77.8
298.15 K, x1 = 0.007	1.55	–	–
298.15 K, x1 = 0.015	2.35	1588	1.346
298.15 K, x1 = 0.054	3.1	–	–
298.15 K, x1 = 0.055	–	1756	3.12
298.15 K, x1 = 0.119	–	1832	7.91
298.15 K, x1 = 0.12	2.48	–	–
298.15 K, x1 = 0.168	1.73	1813	13.13
298.15 K, x1 = 0.24	0.98	1754	24.8
298.15 K, x1 = 0.351	–	–	39.3
298.15 K, x1 = 0.353	0.708	–	–
298.15 K, x1 = 0.549	–	1583	59.9
298.15 K, x1 = 0.55	0.365	–	–
298.15 K, x1 = 0.714	0.26	–	68.2
298.15 K, x1 = 0.835	–	1507	–
298.15 K, x1 = 0.838	0.231	–	–
298.15 K, x1 = 0.945	0.23	–	–
300.65 K, x1 = 0.015	–	–	1.263
300.65 K, x1 = 0.055	–	–	2.88
300.65 K, x1 = 0.119	–	–	7.17
300.65 K, x1 = 0.24	–	–	21.9
300.65 K, x1 = 0.351	–	–	34.6
300.65 K, x1 = 0.549	–	–	52.4
300.65 K, x1 = 0.714	–	–	60
303.15 K, x1 = 0.007	1.69	–	–
303.15 K, x1 = 0.015	3.24	1595	1.189
303.15 K, x1 = 0.054	4.76	–	–
303.15 K, x1 = 0.055	–	1751	2.67
303.15 K, x1 = 0.119	–	1819	6.51
303.15 K, x1 = 0.12	3.2	–	–
303.15 K, x1 = 0.24	1.5	1741	19.6
303.15 K, x1 = 0.35	–	1677	–
303.15 K, x1 = 0.353	0.823	–	–
303.15 K, x1 = 0.549	–	1569	46.3
303.15 K, x1 = 0.55	0.473	–	–
303.15 K, x1 = 0.708	–	1524	–
303.15 K, x1 = 0.714	0.365	–	53
303.15 K, x1 = 0.838	0.297	–	–
303.15 K, x1 = 0.945	0.29	–	–
305.65 K, x1 = 0.015	–	–	1.121
305.65 K, x1 = 0.055	–	–	2.48
305.65 K, x1 = 0.119	–	–	5.94
305.65 K, x1 = 0.168	–	–	9.61
305.65 K, x1 = 0.351	–	–	27.2
305.65 K, x1 = 0.549	–	–	41.1
305.65 K, x1 = 0.714	–	–	47
308.15 K, x1 = 0.015	–	1601	1.059
308.15 K, x1 = 0.055	–	1745	2.31
308.15 K, x1 = 0.119	–	1807	5.44
308.15 K, x1 = 0.168	–	1786	8.71
308.15 K, x1 = 0.24	–	1727	15.67
308.15 K, x1 = 0.35	–	1664	–
308.15 K, x1 = 0.351	–	–	24.2
308.15 K, x1 = 0.549	–	1555	36.6
308.15 K, x1 = 0.708	–	1509	–
308.15 K, x1 = 0.714	–	–	41.9
310.65 K, x1 = 0.015	–	–	1.003
310.65 K, x1 = 0.055	–	–	2.15
310.65 K, x1 = 0.119	–	–	5
310.65 K, x1 = 0.168	–	–	7.94
310.65 K, x1 = 0.351	–	–	21.7
310.65 K, x1 = 0.714	–	–	37.4
310.65 K, x1 = 0.84	–	–	38
313.15 K, x1 = 0.015	–	1605	0.952
313.15 K, x1 = 0.055	–	1739	2.01
313.15 K, x1 = 0.119	–	1794	4.6
313.15 K, x1 = 0.168	–	1772	7.26
313.15 K, x1 = 0.24	–	1713	12.76
313.15 K, x1 = 0.35	–	1650	–
